Compared with `O=C1N(c2ccc(Cl)cc2)c2ncccc2C1(Cc1ccccc1)Cc1ccncc1` (stereo not given), `COc1ccc(S(=O)(=O)Nc2ccccc2NC(=O)c2ccc(OCc3ccccc3)cc2)cc1` is lower in melting point: 182 to 185 °C for the first, 148 to 149 °C for the second.

First: CC(NC(=O)c1cccc(C2(C)C(=O)Nc3cc(Cl)cc(Cl)c3C2=O)c1)c1ccccc1 (stereo not given)
Second: NS(=O)(=O)c1cc(C(=O)O)cc(NCCc2ccncc2)c1-c1ccccc1
The melting point of the first is lower: 91 to 94 °C for the first, 216 to 218 °C for the second.

Compared with `CC(=O)C(=O)CCCCCCOc1ccc(-c2ccccc2)cc1`, `O=C(NO)c1ccc(C(=O)NOCCCc2ccccc2)cc1` is higher in melting point: 110 to 111 °C for the first, 179 to 181 °C for the second.

First: CC(=O)c1nc2ccc(OCC(F)(F)C(F)F)cc2cc1O
Second: Cc1oc(-c2ccc(F)cc2)cc1C(=O)O
The melting point of the first is lower: 119 to 121 °C for the first, 217 to 218 °C for the second.

Compared with `CC(C)Cn1c(=O)[nH]c(=O)c2nccnc21`, `CSc1ncc2cc(Br)c(=O)[nH]c2n1` is higher in melting point: 200 to 201 °C for the first, 266 to 270 °C for the second.

First: CC(C)C(=O)c1cn(Cc2c(F)cccc2F)c2sc(-c3ccc([N+](=O)[O-])cc3)c(CN(C)Cc3ccccc3)c2c1=O
Second: CCN(CC)C(=O)c1cccc(OC)c1-c1ccccc1
The melting point of the first is higher: 158 to 162 °C for the first, 55 to 56 °C for the second.

Compared with `CC(C)(C)COC(=O)C#CC1C(C(=O)OC(C#N)c2cccc(Oc3ccccc3)c2)C1(C)C` (stereo not given), `O=C1C=CC(O)(c2ccc3ccccc3c2)C=C1` is higher in melting point: 67 °C for the first, 137 °C for the second.

Compared with `CCCCCCCCCCCCCCCCn1nnc(C(C(=O)Nc2c(OC)cc(OC)cc2OC)c2ccccc2)n1` (stereo not given), `CCCCn1ncc(/C=C(\Cc2cc3c(cc2OC)CCO3)C(=O)O)c1-c1ccc(Cl)cc1OCc1ccccc1C(=O)O` is lower in melting point: 134 to 135 °C for the first, 116 to 118 °C for the second.

Compared with `O=C(N[C@H]1CC[C@H](CCN2CCN(c3nccc4c3OCC4)CC2)CC1)C1(O)CC1`, `CC(C)(C)C(=O)OCCN1CCN(c2nc(N)ncc2Oc2ccc(Cl)cc2)CC1` is lower in melting point: 248 °C for the first, 123 to 125 °C for the second.

First: CCOC(=O)c1ccc(OC)c(OCc2nc(C)c(C)nc2C)c1
Second: COC(=O)c1cccc(-c2nc(COc3ccc(C=O)cc3OC)c(C)o2)c1
The melting point of the first is lower: 130 °C for the first, 168 to 169 °C for the second.

First: CCOC(=O)c1ncc(Cn2c(NC3CCN(C(=O)OCC)CC3)nc3ccccc32)o1
Second: CCOc1ccc(C2=NN(C3CCN(C(=O)CCCC(=O)O)CC3)C(=O)[C@@H]3CC=CC[C@H]23)cc1OCC
The melting point of the first is lower: 132 °C for the first, 133 to 135 °C for the second.

First: COc1ccc(CN2C(=O)CC(C)(C)c3cc(Br)ccc32)cc1
Second: COc1ccc(CN2C(=O)C3(COc4cc5c(cc43)CCO5)c3ccccc32)cc1 (stereo not given)
The melting point of the first is lower: 118 to 119 °C for the first, 120 to 121 °C for the second.

First: CN(C)C(=O)N(N=Cc1ccc(OC(F)(F)C(F)F)cc1)C(=N)NN=Cc1ccc(OC(F)(F)C(F)F)cc1
Second: COc1ccc(C(=[N+]=[N-])c2ccc(OC)cc2)cc1
The melting point of the first is higher: 142 to 144 °C for the first, 85 °C for the second.

First: COc1ccc(C(=O)O)s1
Second: CCOC(=O)c1cc(N)ccc1O
The melting point of the first is higher: 167 to 168 °C for the first, 40 to 43 °C for the second.

First: COC(=O)CCC(=O)c1cc2cc(OC)c(OC)cc2o1
Second: COc1cc(OC)c2c(=O)[nH]c(-c3cc(C)cc(OCCO)c3)nc2c1
The melting point of the first is higher: 140 to 142 °C for the first, 107 to 109 °C for the second.

First: O=C(O)c1cc(I)c(F)c(F)c1F
Second: Cc1nc(C(F)(F)F)ccc1C(=O)C1=C(O)C2CC2C(C)(S(C)=O)C1=O (stereo not given)
The melting point of the first is higher: 167 to 171 °C for the first, 160 °C for the second.

First: Cc1cccc(C)c1NC(C)(C)C(=O)O
Second: C=CCc1c(C)cc(C)c(C(C)O)c1-c1ccc(F)cc1 (stereo not given)
The melting point of the first is higher: 148 °C for the first, 92 °C for the second.

First: COc1ccc(Cn2ncc3nc(Cl)nc(Cl)c32)cc1
Second: CC=Cn1c(C)c(C)c2cnnc(OCc3ccc(F)cc3)c21
The melting point of the first is lower: 100 to 101 °C for the first, 114 to 115 °C for the second.

First: COc1ccc(C(C)c2cc(O)ccc2OC)cc1 (stereo not given)
Second: COC(=O)c1cc(S(C)(=O)=O)ccc1OCc1ccccn1
The melting point of the first is lower: 81 to 83 °C for the first, 189 to 192 °C for the second.

`Cc1c(-c2csc(-c3ccncc3)n2)c(=O)[nH]c2ccccc12` and `CNC(=O)c1ccc(Nc2nccc(-c3cccnc3)n2)cc1` cannot be ordered by melting point: > 250 °C for the first, 254 to 257 °C for the second.

Compared with `CO[C@]12C[C@@H](CN3CCC(O)(c4ccc(Cl)c(C(F)(F)F)c4)CC3)CN(C)[C@@H]1Cc1c[nH]c3cccc2c13`, `COC(=O)c1cc(-c2cccc(C(F)(F)F)c2)c(=O)n2c1-c1sccc1SCC2` is higher in melting point: 143 to 146 °C for the first, 190 to 191 °C for the second.

First: CC(C)(C)[C@@H](CO)NC(=O)[C@@H](CC(=O)O)n1ccc(-c2ccc(-c3ccncc3)cc2)c1
Second: CCc1nnc(CCc2ccc(NC(=O)/C=C/c3cnn(C)c3-c3ccc(F)cc3)cc2)o1
The melting point of the first is higher: 192 to 194 °C for the first, 167 to 168 °C for the second.

First: CCCc1c(C(=O)OCC)sc(NC(=O)C(=O)OCC)c1[N+](=O)[O-]
Second: CCOC(=O)c1cnc2ccc(OCC)nc2c1Cl
The melting point of the first is higher: 73 to 75 °C for the first, 61 to 64 °C for the second.

First: CC(C)c1ccc(N(C=O)C(=O)N(C)C)cc1
Second: CN(C)c1ccc2sc(C=O)cc2c1
The melting point of the first is lower: 30 to 32 °C for the first, 105 to 106 °C for the second.

First: CCC(C)C(C)C(=O)Nc1ccc2c(C)cn3c(=O)c(C(=O)OCCNC(=O)c4cccnc4)cnc3c2c1 (stereo not given)
Second: Cc1cc(Nc2ccnc(Nc3ccc(S(=O)(=O)N(CCNC(=O)OC(C)(C)C)C4CCN(C(=O)OC(C)(C)C)CC4)cc3)n2)ccc1F
The melting point of the first is lower: 204 to 210 °C for the first, 242 to 244 °C for the second.

First: CN(CC(=O)N1CCN(Cc2ccc3c(c2)OCO3)CC1)c1ccc(Oc2ccc(NS(=O)(=O)c3ccc(Cl)c(Cl)c3)cn2)c(F)c1
Second: COc1ccc(CN2C(=O)C3(COc4cc5c(cc43)OCCO5)c3ccccc32)cn1 (stereo not given)
The melting point of the first is higher: 186 to 187 °C for the first, 161 to 162 °C for the second.

First: O=C(O)C(CBr)(CBr)COCC(CBr)(CBr)C(=O)O
Second: O=C(O)CCNC(=O)C(Cl)(Cl)Cl
The melting point of the first is higher: 189 to 193 °C for the first, 102 to 110 °C for the second.

Compared with `CCO/C(=C\c1ccsc1)C(=O)O`, `COc1ccc(CS(=O)(=O)CC(=O)O)cc1[N+](=O)[O-]` is higher in melting point: 88 to 89 °C for the first, 96 to 98 °C for the second.

Compared with `COc1cnc(CS(C)=O)nc1OC(=O)N(C)C` (stereo not given), `COCc1nc(S)nc(O)c1OC` is higher in melting point: 122 °C for the first, 187 to 189 °C for the second.

First: Cn1cc(S(C)=O)c(=O)c2ccc(Br)cc21 (stereo not given)
Second: Cc1nc2cc(NC(=O)c3ccc(Cl)cc3Cl)ccc2n1C
The melting point of the first is lower: 248 to 249 °C for the first, 275 to 277 °C for the second.

First: CC12CCC3C(CCC4CC(O)CCC43C)C1CCC2C#CBr (stereo not given)
Second: COc1ccc(/C=C(\C#N)c2ccccc2N)cc1OC1CCCC1
The melting point of the first is higher: 165 to 167 °C for the first, 81 to 82.5 °C for the second.

First: O=C(Nc1ccc(-n2nc(C(F)(F)F)cc2C(F)(F)F)cc1-n1nc(C(F)(F)F)cc1C(F)(F)F)c1ccc(F)cc1F
Second: COc1cc(F)ccc1Oc1c(Cl)ncnc1NS(=O)(=O)c1ccc(C(C)(C)C)cc1
The melting point of the first is lower: 114 to 115 °C for the first, 146 to 147 °C for the second.

Compared with `COC(=O)C=C(C(=O)OC)N1CCC23C=CC(O)CC2Oc2c(OC)ccc(c23)C1` (stereo not given), `Cc1nccn1CC1CC2CCCn3c2c(c2ccccc23)C1=O` (stereo not given) is higher in melting point: 121 to 122 °C for the first, 169 to 171 °C for the second.

Compared with `O=C1C(=Cc2cc(Br)cs2)CCc2cc(OCCn3ccnc3)ccc21`, `CC1Cc2ccc(Cl)cc2C(c2ccc([N+](=O)[O-])cc2)=NN1C(=S)Cl` (stereo not given) is higher in melting point: 164 to 166 °C for the first, 210 to 214 °C for the second.

First: CSc1nccc(-c2ssc(=S)c2C)n1
Second: O=C(N[C@@H](Cc1ccc(C(=O)c2ccccc2)cc1)C(=O)O)OCC1c2ccccc2-c2ccccc21
The melting point of the first is higher: 170 to 172 °C for the first, 115 to 117 °C for the second.
